Two molecules from US11370769B2, “TRPC5 inhibitors and methods of using same” (BOARD OF REGENTS OF THE UNIVERSITY OF NEBRASKA, priority 2017, dated 2022) can be followed below.

pIC50: −log10 of the molar value.

One assay addresses T1, TRPC5 (Homo sapiens, UniProt Q9UL62).
T1 construct: expressed in transfected cells; host or cells: HEK293
T1 sequence (Q9UL62 1-973): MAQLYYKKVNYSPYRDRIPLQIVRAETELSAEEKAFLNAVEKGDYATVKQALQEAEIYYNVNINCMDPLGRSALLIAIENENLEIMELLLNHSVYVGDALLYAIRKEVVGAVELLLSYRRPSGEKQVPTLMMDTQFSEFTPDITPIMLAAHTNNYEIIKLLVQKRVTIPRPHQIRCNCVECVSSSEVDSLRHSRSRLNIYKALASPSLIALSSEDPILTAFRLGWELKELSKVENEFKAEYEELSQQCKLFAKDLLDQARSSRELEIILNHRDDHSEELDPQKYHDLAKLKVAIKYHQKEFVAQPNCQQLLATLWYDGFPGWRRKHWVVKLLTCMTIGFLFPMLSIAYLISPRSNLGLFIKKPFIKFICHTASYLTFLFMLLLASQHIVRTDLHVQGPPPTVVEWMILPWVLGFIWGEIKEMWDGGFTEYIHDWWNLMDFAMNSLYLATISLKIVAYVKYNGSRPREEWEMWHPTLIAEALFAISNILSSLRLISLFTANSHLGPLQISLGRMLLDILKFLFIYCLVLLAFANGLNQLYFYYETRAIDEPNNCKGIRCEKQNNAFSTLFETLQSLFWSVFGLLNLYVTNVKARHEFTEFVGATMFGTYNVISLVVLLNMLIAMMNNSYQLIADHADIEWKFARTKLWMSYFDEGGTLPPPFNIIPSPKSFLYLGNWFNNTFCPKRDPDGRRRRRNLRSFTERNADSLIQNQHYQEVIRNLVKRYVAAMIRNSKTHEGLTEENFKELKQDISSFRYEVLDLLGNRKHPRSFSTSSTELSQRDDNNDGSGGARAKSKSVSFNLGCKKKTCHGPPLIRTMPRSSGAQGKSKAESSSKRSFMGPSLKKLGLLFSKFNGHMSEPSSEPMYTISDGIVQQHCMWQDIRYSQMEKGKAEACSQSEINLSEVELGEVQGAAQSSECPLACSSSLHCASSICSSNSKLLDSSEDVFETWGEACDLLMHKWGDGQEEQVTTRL
As to the kind of experiment: HEK293 whole-cell patch clamp recording, TRPC5 inhibition assay. The assay is classed as cell-based. The note with it: for pIC50: dose response, whole cell patch clamp, HEK cells expressing TRPC5, Rilu (3 μM). The procedure:
(§1) TRPC4, TRPC5, and TRPC6 inhibition assay: HEK293 whole-cell recordings Whole-cell patch clamp recording was performed 16 h after transfection. The bath solution contained (in mM): 140 NaCl, 5 KCl, 10 HEPES, 2 MgCl2, 2 CaCl2, 10 glucose with pH7.4 adjusted with NaOH. The intracellular solution contained (in mM): 140 KCl, 5 EGTA, 10 HEPES, 2 MgCl2 with pH7.4 adjusted with KOH. The patch pipettes were made using a two-step-protocol (P-97, Sutter Instrument). The pipette resistance was maintained between 4 to 8 MΩ. Once the whole-cell configuration was achieved, cells were clamped at a holding potential of −60 mV, and given a 50 ms ramp stimulation from −100 mV to +100 mV in every 5 s. All currents were filtered at 2 KHz (Axopatch 200B amplifier, Axon Instruments, Union City, Calif.) and digitized at 10 KHz for whole-cell recordings using Axon pCLAMP 10.4. Data were then analyzed using Clampfit 10.4 (Molecular Devices).
(§2) HEK293 cell culture and transfection: Transfection of HEK293 cells was carried out using Plus reagent (Invitrogen) and Lipofectamine (Invitrogen) according to standard protocols. For heterologous expression of TRP channels in HEK293 cells, 1 μg of TRPC5-GFP, TRPC6-GFP or TRPC4-GFP plasmids were used to transfect HEK293 cells in a 3.5 cm petri dish where cells were allowed to grow to 80% confluence. Electrophysiology was carried out after 16 h incubation.
(The patch-clamp technique gives a direct electrical read-out from membranes.)

The target in a further assay is T2, TRPC6 (Homo sapiens, UniProt Q9Y210).
T2 construct: expressed in transfected cells; host or cells: HEK293
T2 sequence (Q9Y210 1-931): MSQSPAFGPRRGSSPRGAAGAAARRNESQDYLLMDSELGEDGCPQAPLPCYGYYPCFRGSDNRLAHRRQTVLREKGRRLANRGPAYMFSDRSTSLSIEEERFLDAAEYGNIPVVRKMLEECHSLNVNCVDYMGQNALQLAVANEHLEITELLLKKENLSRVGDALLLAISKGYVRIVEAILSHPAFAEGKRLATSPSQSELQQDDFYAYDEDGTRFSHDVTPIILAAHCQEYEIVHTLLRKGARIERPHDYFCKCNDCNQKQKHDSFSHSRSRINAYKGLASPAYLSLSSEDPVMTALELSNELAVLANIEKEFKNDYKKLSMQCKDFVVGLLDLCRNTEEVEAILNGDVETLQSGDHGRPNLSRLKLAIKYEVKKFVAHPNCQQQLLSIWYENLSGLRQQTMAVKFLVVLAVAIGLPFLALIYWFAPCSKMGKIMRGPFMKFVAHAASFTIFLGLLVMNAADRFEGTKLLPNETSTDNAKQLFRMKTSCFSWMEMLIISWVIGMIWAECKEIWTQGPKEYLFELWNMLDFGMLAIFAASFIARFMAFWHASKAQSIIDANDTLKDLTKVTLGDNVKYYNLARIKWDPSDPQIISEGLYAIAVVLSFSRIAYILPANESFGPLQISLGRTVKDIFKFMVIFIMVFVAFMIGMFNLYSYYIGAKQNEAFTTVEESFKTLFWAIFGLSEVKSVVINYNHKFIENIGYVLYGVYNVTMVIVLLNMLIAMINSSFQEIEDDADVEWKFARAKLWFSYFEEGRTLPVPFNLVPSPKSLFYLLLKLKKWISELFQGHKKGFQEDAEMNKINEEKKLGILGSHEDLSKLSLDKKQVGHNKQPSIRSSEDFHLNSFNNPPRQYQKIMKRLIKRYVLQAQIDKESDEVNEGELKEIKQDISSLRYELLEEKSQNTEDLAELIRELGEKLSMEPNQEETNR
Put plainly: HEK293 whole-cell patch clamp recording, TRPC6 inhibition assay. The assay is classed as cell-based. The note with it: 30 μM, HEK cells expressing TRPC6, OAG 30 μM. The procedure:
as §1, §2

Turning to `c1ccc(Cn2c(NCc3ccco3)nc3ccccc32)cc1` [AC1903], the “block of riluzole-activated TRPC5 whole-cell current” value at TRPC5 (30 μM, HEK cells expressing TRPC5) is listed as “blocked”. The pIC50 – broadly, the IC50 on a negative log10 scale, so that one unit is a factor of ten – against TRPC5 is 4.83. Also, on TRPC6, the “block of OAG-induced TRPC6 current” value is on record as “failed to block”.

For the molecule `Cc1cc(N2CCCCC2)nc2ccccc12` [ML204, reference compound], the pIC50 on TRPC5 was 4.87.
